Values after ≈ are worked out from the molar mass of the structure shown.
Tests used:
Assay type in all cases: functional
[1] = tested on: Mycolicibacterium smegmatis; test: Antimicrobial activity against Mycobacterium smegmatis
Staphylococcus aureus = test: Antimicrobial activity against Staphylococcus aureus
Candida albicans = test: Antimicrobial activity against Candida albicans

MIC [1] [µg/mL]	MIC (Staphylococcus aureus) [µg/mL]	MIC (Candida albicans) [µg/mL]	Compound
100 (≈ 150 µM)	–	–	COc1ccc2cc1Oc1ccc(cc1)C[C@H]1c3c(c(O)c(OC)c(OC)c3Oc3c4c(cc(OC)c3OC)[C@H](C2)N(C)CC4)CCN1C [THALIMIRABINE]
100 (≈ 150 µM)	1000 (≈ 1500 µM)	–	COc1ccc(C[C@H]2c3cc(OC)c(OC)c(O)c3CCN2C)cc1Oc1ccc(C[C@H]2c3cc4c(c(OC)c3CCN2C)OCO4)cc1 [THALISTINE]
100 (≈ 157 µM)	–	500 (≈ 783 µM)	COc1cc2c(cc1OC)[C@H](Cc1ccc(Oc3cc(C[C@H]4c5cc(OC)c(OC)cc5CCN4C)ccc3OC)cc1)N(C)CC2

Reference: ChEMBL document CHEMBL1151346, “Alkaloids of Thalictrum XXXIV. Three New Alkaloids, Thalmirabine, Thalistine, and O-Methylthalibrine, and Others From Roots of Thalictrum minus Race B” (1980)
